Assay results as given in ChEMBL document CHEMBL5321200, “Discovery of the GSH responsive "Y-PROTACs" targeting ALK and CDK4/6 as a potential treatment for cancer” (Eur J Med Chem, 2023).
Activity calls are given as the source filed them. The rule behind the calls is not given here.

Key:
NCI-H3122 [1] = experiment: Induction of apoptosis in human NCI-H3122 cells assessed as viable cells at 1.25 uM incubated for 48 hrs by Annexin V-FITC/propidium iodide staining based flow cytometric analysis (reference value: 94.19%); assay type: functional; details: read-out: Activity
NCI-H3122 [2] = experiment: Induction of apoptosis in human NCI-H3122 cells assessed as necrotic cells at 1.25 uM incubated for 48 hrs by Annexin V-FITC/propidium iodide staining based flow cytometric analysis (reference value: 3.53%); assay type: functional
NCI-H3122 [3] = experiment: Cell cycle arrest in human NCI-H3122 cells assessed as accumulation of cells at G0/G1 phase at 1.25 uM incubated for 24 hrs by propidium iodide staining based flow cytometric analysis (reference value: 45.91%); assay type: functional
[4] = Cytotoxicity against human L02 cells assessed as inhibition of cell growth incubated for 3 to 5 days by MTT assay; assay type: toxicity, cell-based
NCI-H3122 [5] = experiment: Cell cycle arrest in human NCI-H3122 cells assessed as accumulation of cells at S phase at 1.25 uM incubated for 24 hrs by propidium iodide staining based flow cytometric analysis (reference value: 34.86%); assay type: functional
NCI-H3122 [6] = experiment: Antiproliferative activity against human NCI-H3122 cells assessed as inhibition of cell growth pretreated with GSH followed by compound addition and incubated for 3 to 5 days by MTT assay; assay type: functional, cell-based
NCI-H1299 [7] = experiment: Antiproliferative activity against human NCI-H1299 cells assessed as inhibition of cell growth incubated for 3 to 5 days by MTT assay; assay type: functional, cell-based
NCI-H3122 [8] = experiment: Cell cycle arrest in human NCI-H3122 cells assessed as accumulation of cells at S phase at 0.625 uM incubated for 24 hrs by propidium iodide staining based flow cytometric analysis (reference value: 34.86%); assay type: functional
NCI-H3122 [9] = experiment: Induction of apoptosis in human NCI-H3122 cells assessed as late apoptotic cells at 0.312 uM incubated for 48 hrs by Annexin V-FITC/propidium iodide staining based flow cytometric analysis (reference value: 1.73%); assay type: functional
NCI-H3122 [10] = experiment: Induction of apoptosis in human NCI-H3122 cells assessed as early apoptotic cells at 0.312 uM incubated for 48 hrs by Annexin V-FITC/propidium iodide staining based flow cytometric analysis (reference value: 0.50%); assay type: functional
[11] = target: Protein cereblon/Cyclin-dependent kinase 6 (Homo sapiens) (UniProt Q00534+Q96SW2); experiment: PROTAC activity at CRBN/CDK6 in human NCI-H3122 cells assessed as reduction in CDK6 protein level at 1 uM incubated for 24 hrs by Western blot analysis; assay type: cell-based
NCI-H3122 [12] = experiment: Induction of apoptosis in human NCI-H3122 cells assessed as necrotic cells at 0.625 uM incubated for 48 hrs by Annexin V-FITC/propidium iodide staining based flow cytometric analysis (reference value: 3.53%); assay type: functional
NCI-H3122 [13] = experiment: Cell cycle arrest in human NCI-H3122 cells assessed as accumulation of cells at G2/M phase at 1.25 uM incubated for 24 hrs by propidium iodide staining based flow cytometric analysis (reference value: 18.55%); assay type: functional
NCI-H3122 [14] = experiment: Cell cycle arrest in human NCI-H3122 cells assessed as accumulation of cells at G2/M phase at 0.312 uM incubated for 24 hrs by propidium iodide staining based flow cytometric analysis (reference value: 18.55%); assay type: functional
NCI-H2228 [15] = experiment: Antiproliferative activity against human NCI-H2228 cells assessed as inhibition of cell growth incubated for 3 to 5 days by MTT assay; assay type: functional, cell-based
NCI-H3122 [16] = experiment: Cell cycle arrest in human NCI-H3122 cells assessed as accumulation of cells at G0/G1 phase at 0.625 uM incubated for 24 hrs by propidium iodide staining based flow cytometric analysis (reference value: 45.91%); assay type: functional
NCI-H3122 [17] = experiment: Cell cycle arrest in human NCI-H3122 cells assessed as accumulation of cells at G2/M phase at 2.5 uM incubated for 24 hrs by propidium iodide staining based flow cytometric analysis (reference value: 18.55%); assay type: functional
NCI-H1299 [18] = experiment: Antiproliferative activity against human NCI-H1299 cells assessed as inhibition of cell growth pretreated with GSH followed by compound addition and incubated for 3 to 5 days by MTT assay; assay type: functional, cell-based
NCI-H3122 [19] = experiment: Cell cycle arrest in human NCI-H3122 cells assessed as accumulation of cells at S phase at 0.312 uM incubated for 24 hrs by propidium iodide staining based flow cytometric analysis (reference value: 34.86%); assay type: functional
NCI-H3122 [20] = experiment: Cell cycle arrest in human NCI-H3122 cells assessed as accumulation of cells at G0/G1 phase at 0.312 uM incubated for 24 hrs by propidium iodide staining based flow cytometric analysis (reference value: 45.91%); assay type: functional
NCI-H3122 [21] = experiment: Induction of apoptosis in human NCI-H3122 cells assessed as early apoptotic cells at 2.5 uM incubated for 48 hrs by Annexin V-FITC/propidium iodide staining based flow cytometric analysis (reference value: 0.50%); assay type: functional
NCI-H3122 [22] = experiment: Induction of apoptosis in human NCI-H3122 cells assessed as viable cells at 2.5 uM incubated for 48 hrs by Annexin V-FITC/propidium iodide staining based flow cytometric analysis (reference value: 94.19%); assay type: functional; details: read-out: Activity
NCI-H3122 [23] = experiment: Induction of apoptosis in human NCI-H3122 cells assessed as early apoptotic cells at 1.25 uM incubated for 48 hrs by Annexin V-FITC/propidium iodide staining based flow cytometric analysis (reference value: 0.50%); assay type: functional
NCI-H2228 [24] = experiment: Antiproliferative activity against human NCI-H2228 cells assessed as inhibition of cell growth pretreated with GSH followed by compound addition and incubated for 3 to 5 days by MTT assay; assay type: functional, cell-based
NCI-H3122 [25] = experiment: Cell cycle arrest in human NCI-H3122 cells assessed as accumulation of cells at G2/M phase at 0.625 uM incubated for 24 hrs by propidium iodide staining based flow cytometric analysis (reference value: 18.55%); assay type: functional
NCI-H3122 [26] = experiment: Induction of apoptosis in human NCI-H3122 cells assessed as total apoptotic cells at 2.5 uM incubated for 48 hrs by Annexin V-FITC/propidium iodide staining based flow cytometric analysis relative to control; assay type: functional
NCI-H3122 [27] = experiment: Induction of apoptosis in human NCI-H3122 cells assessed as viable cells at 0.625 uM incubated for 48 hrs by Annexin V-FITC/propidium iodide staining based flow cytometric analysis (reference value: 94.19%); assay type: functional; details: read-out: Activity
NCI-H3122 [28] = experiment: Antiproliferative activity against human NCI-H3122 cells assessed as inhibition of cell growth incubated for 3 to 5 days by MTT assay; assay type: functional, cell-based
[29] = Cytotoxicity against human L02 cells assessed as inhibition of cell growth pretreated with GSH followed by compound addition and incubated for 3 to 5 days by MTT assay; assay type: toxicity, cell-based
NCI-H3122 [30] = experiment: Induction of apoptosis in human NCI-H3122 cells assessed as late apoptotic cells at 2.5 uM incubated for 48 hrs by Annexin V-FITC/propidium iodide staining based flow cytometric analysis (reference value: 1.73%); assay type: functional
NCI-H3122 [31] = experiment: Cell cycle arrest in human NCI-H3122 cells assessed as accumulation of cells at G0/G1 phase at 2.5 uM incubated for 24 hrs by propidium iodide staining based flow cytometric analysis (reference value: 45.91%); assay type: functional
NCI-H3122 [32] = experiment: Induction of apoptosis in human NCI-H3122 cells assessed as necrotic cells at 0.312 uM incubated for 48 hrs by Annexin V-FITC/propidium iodide staining based flow cytometric analysis (reference value: 3.53%); assay type: functional
NCI-H3122 [33] = experiment: Induction of apoptosis in human NCI-H3122 cells assessed as late apoptotic cells at 0.625 uM incubated for 48 hrs by Annexin V-FITC/propidium iodide staining based flow cytometric analysis (reference value: 1.73%); assay type: functional
NCI-H3122 [34] = experiment: Induction of apoptosis in human NCI-H3122 cells assessed as viable cells at 0.312 uM incubated for 48 hrs by Annexin V-FITC/propidium iodide staining based flow cytometric analysis (reference value: 94.19%); assay type: functional; details: read-out: Activity
NCI-H3122 [35] = experiment: Induction of apoptosis in human NCI-H3122 cells assessed as late apoptotic cells at 1.25 uM incubated for 48 hrs by Annexin V-FITC/propidium iodide staining based flow cytometric analysis (reference value: 1.73%); assay type: functional
NCI-H3122 [36] = experiment: Cell cycle arrest in human NCI-H3122 cells assessed as accumulation of cells at S phase at 2.5 uM incubated for 24 hrs by propidium iodide staining based flow cytometric analysis (reference value: 34.86%); assay type: functional
NCI-H3122 [37] = experiment: Induction of apoptosis in human NCI-H3122 cells assessed as early apoptotic cells at 0.625 uM incubated for 48 hrs by Annexin V-FITC/propidium iodide staining based flow cytometric analysis (reference value: 0.50%); assay type: functional
NCI-H3122 [38] = experiment: Induction of apoptosis in human NCI-H3122 cells assessed as necrotic cells at 2.5 uM incubated for 48 hrs by Annexin V-FITC/propidium iodide staining based flow cytometric analysis (reference value: 3.53%); assay type: functional

Chain of Protein cereblon/Cyclin-dependent kinase 6 (Homo sapiens) (Q00534 whole entry, looked up): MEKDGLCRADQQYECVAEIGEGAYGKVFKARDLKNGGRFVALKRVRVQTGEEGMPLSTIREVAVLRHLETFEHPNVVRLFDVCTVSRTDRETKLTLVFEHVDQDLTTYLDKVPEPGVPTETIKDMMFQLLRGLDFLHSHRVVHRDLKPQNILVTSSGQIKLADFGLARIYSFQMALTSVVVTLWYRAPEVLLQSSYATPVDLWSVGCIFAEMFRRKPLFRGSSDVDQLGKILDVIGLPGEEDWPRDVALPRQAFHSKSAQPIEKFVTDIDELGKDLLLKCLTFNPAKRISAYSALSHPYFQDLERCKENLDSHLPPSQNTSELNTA
Chain of Protein cereblon/Cyclin-dependent kinase 6 (Homo sapiens) (Q96SW2 whole entry, looked up): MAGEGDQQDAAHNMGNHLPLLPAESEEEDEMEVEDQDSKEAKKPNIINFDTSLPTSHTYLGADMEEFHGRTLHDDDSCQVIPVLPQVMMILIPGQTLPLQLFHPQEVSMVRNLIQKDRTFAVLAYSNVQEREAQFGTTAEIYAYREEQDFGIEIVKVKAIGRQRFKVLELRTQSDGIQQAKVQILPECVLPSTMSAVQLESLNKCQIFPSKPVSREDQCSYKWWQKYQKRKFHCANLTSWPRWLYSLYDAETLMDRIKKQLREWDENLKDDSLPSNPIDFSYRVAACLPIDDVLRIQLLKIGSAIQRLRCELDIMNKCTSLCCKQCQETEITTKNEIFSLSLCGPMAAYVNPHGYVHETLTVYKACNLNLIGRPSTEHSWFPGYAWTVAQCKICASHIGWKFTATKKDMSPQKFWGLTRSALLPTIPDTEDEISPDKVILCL

Cc1cc(Nc2ncc(Cl)c(Nc3ccccc3S(=O)(=O)C(C)C)n2)c(OC(C)C)cc1C1CCNCC1 [CERITINIB] showed a viability at 1.25 µM (NCI-H3122 [1]) of 87.3%, an Activity (NCI-H3122 [2]) of 4.45% and an Activity (NCI-H3122 [3]) of 55.92%. For the same molecule, the IC50 [4] was 3510 nM, the Activity (NCI-H3122 [5]) was 15.21% and the IC50 (NCI-H3122 [6]) was 60 nM. It also gave an IC50 (NCI-H1299 [7]) of 1740 nM, an Activity (NCI-H3122 [8]) of 14.15% and an Activity (NCI-H3122 [9]) of 3.61%. The Activity (NCI-H3122 [10]) was 0.91%, the Activity [11] was “inactive” and the Activity (NCI-H3122 [12]) was 4.19%. It also gave an Activity (NCI-H3122 [13]) of 28.18%, an Activity (NCI-H3122 [14]) of 33.92% and an IC50 (NCI-H2228 [15]) of 580 nM. For the same molecule, the Activity (NCI-H3122 [16]) was 57.79%, the Activity (NCI-H3122 [17]) was 24.08% and the IC50 (NCI-H1299 [18]) was 1620 nM. The Activity (NCI-H3122 [19]) was 12.62%, the Activity (NCI-H3122 [20]) was 52.82% and the Activity (NCI-H3122 [21]) was 3.86%. The viability at 2.5 µM (NCI-H3122 [22]) was 87.4%, the Activity (NCI-H3122 [23]) was 1.99% and the IC50 (NCI-H2228 [24]) was 590 nM. The Activity (NCI-H3122 [25]) was 27.27%, the Activity (NCI-H3122 [26]) was 10.8% and the viability at 0.625 µM (NCI-H3122 [27]) was 88.1%. The IC50 (NCI-H3122 [28]) was 60 nM, the IC50 [29] was 1030 nM and the Activity (NCI-H3122 [30]) was 6.94%. For the same molecule, the Activity (NCI-H3122 [31]) was 60.69%, the Activity (NCI-H3122 [32]) was 4.19% and the Activity (NCI-H3122 [33]) was 5.87%. The viability at 0.312 µM (NCI-H3122 [34]) was 91.3%, the Activity (NCI-H3122 [35]) was 6.24% and the Activity (NCI-H3122 [36]) was 14.93%. It also gave an Activity (NCI-H3122 [37]) of 1.88% and an Activity (NCI-H3122 [38]) of 1.93%.
